Results taken from patent US20060040957A1, “BICYCLIC PYRIMIDINE MATRIX METALLOPROTEINASE INHIBITORS” (priority 2001, published 2006).
Structures can show the parent of a compound that is named as a salt.

Columns and labels:
Format in all cases: biochemical
[1] = target: T1, MMP-2FL (full length Gelatinase A) (Homo sapiens, UniProt P08253); test: Thiopeptolide substrate hydrolysis assay, MMP-2FL; settings: HEPES pH 7.0, 22° C., read-out: IC50 (μM) Versus Certain MMPs: MMP-02 FL
T1 sequence (P08253 110-660): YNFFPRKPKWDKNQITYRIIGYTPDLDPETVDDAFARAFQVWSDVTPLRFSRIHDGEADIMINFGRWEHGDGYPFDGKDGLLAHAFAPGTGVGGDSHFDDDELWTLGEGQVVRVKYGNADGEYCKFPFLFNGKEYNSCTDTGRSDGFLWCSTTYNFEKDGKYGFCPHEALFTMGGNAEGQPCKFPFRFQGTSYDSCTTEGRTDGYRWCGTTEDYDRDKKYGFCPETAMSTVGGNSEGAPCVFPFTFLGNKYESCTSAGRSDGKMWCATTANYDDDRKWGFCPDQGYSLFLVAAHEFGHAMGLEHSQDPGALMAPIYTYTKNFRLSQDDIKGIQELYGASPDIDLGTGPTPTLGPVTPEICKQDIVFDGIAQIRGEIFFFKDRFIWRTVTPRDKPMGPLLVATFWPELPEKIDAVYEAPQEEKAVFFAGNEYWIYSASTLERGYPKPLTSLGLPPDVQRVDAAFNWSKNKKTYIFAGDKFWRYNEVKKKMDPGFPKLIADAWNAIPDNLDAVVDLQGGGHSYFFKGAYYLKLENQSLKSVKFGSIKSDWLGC
Excerpt: (§1) The invention compounds of Formula I have been evaluated in standard assays for their ability to inhibit the catalytic activity of various MMP enzymes.
(§2) Thiopeptolide substrates show virtually no decomposition or hydrolysis at or below neutral pH in the absence of a matrix metalloproteinase enzyme.
(§3) Several representative compounds have been evaluated for their ability to inhibit various matrix metalloproteinase enzymes.

[2] = target: T2, MMP-7FL (full length matrilysin) (Homo sapiens, UniProt P09237); test: Thiopeptolide substrate hydrolysis assay, MMP-7FL; settings: HEPES pH 7.0, 22° C., read-out: IC50 (μM) Versus Certain MMPs: MMP-07 FL
T2 sequence (P09237 95-267): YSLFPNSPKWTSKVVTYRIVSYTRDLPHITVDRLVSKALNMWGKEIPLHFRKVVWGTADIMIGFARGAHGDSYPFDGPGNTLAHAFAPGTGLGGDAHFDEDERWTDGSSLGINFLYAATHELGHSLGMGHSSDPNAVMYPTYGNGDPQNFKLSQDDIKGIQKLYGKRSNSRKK
Excerpt: as §1, §2, §3

[3] = target: MMP-9FL (full length Gelatinase B) (Homo sapiens, UniProt P14780); test: Thiopeptolide substrate hydrolysis assay, MMP-9FL; settings: HEPES pH 7.0, 22° C., read-out: IC50 (μM) Versus Certain MMPs: MMP-09 FL
Excerpt: as §1, §2, §3

[4] = target: MMP-14CD (catalytic domain of MMP-14) (Homo sapiens, UniProt P50281); test: Thiopeptolide substrate hydrolysis assay, MMP-14CD; settings: HEPES pH 7.0, 22° C., read-out: IC50 (μM) Versus Certain MMPs: MMP-14 CD
Excerpt: as §1, §2, §3

Chain of MMP-9FL (full length Gelatinase B) (P14780 94-707, species assumed): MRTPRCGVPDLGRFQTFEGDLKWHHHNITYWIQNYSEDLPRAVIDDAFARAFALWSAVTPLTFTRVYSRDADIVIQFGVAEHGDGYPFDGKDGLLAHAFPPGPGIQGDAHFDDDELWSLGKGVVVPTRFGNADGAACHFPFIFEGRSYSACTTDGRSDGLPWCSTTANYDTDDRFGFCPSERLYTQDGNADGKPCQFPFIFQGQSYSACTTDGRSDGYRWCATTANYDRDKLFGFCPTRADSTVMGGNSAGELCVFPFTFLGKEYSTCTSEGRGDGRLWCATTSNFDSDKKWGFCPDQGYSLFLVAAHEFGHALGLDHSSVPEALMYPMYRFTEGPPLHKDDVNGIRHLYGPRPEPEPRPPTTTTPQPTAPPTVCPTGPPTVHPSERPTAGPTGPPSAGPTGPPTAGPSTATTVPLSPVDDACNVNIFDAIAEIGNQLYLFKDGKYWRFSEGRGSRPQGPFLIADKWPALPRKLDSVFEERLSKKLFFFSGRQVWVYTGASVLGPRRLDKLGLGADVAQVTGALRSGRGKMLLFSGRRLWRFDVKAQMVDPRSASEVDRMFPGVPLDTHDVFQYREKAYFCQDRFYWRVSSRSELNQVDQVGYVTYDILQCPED

Question: Which results are given for Cc1c(=O)n(Cc2ccc(Br)cc2)c(=O)n2cc(C(=O)NCc3ccncc3)sc12 [Example 71, 6-(4-Bromo-benzyl)-8-methyl-5,7-dioxo-6,7-dihydro-5H-thiazolo[3,2-c]pyrimidine-2-carboxylic acid(pyridin-4-ylmethyl)-amide hydrochloride]?
Answer: IC50 [1]: > 30 µM; IC50 [2]: > 30 µM; IC50 [3]: > 30 µM; IC50 [4]: > 30 µM

Question: How did the IC50 [1] turn out when Cc1c(=O)n(Cc2ccc(Cl)cc2)c(=O)n2cc(C(=O)NCc3ccncc3)sc12 [Example 72, 6-(4-Chloro-benzyl)-8-methyl-5,7-dioxo-6,7-dihydro-5H-thiazolo[3,2-c]pyrimidine-2-carboxylic acid(pyridin-4-ylmethyl)-amide] was run?
Answer: The IC50 was over 30 µM.

Question: And the IC50 [2]?
Answer: The IC50 was over 30 µM.

Question: And the IC50 [3]?
Answer: Its IC50 is over 30 µM.

Question: What about the IC50 [4] of the same compound?
Answer: Its IC50 is over 30 µM.

Question: Which results are given for Cc1c(=O)n(Cc2ccc(C(=O)N3CCOCC3)cc2)c(=O)n2cc(C(=O)NCc3ccncc3)sc12 [Example 73, 8-Methyl-6-[4-(morpholine-4-carbonyl)-benzyl]-5,7-dioxo-6,7-dihydro-5H-thiazolo[3,2-c]pyrimidine-2-carboxylic acid(pyridin-4-ylmethyl)-amide hydrochloride]?
Answer: IC50 [1]: > 100 µM; IC50 [2]: > 100 µM; IC50 [3]: > 100 µM; IC50 [4]: > 30 µM

Question: Which IC50 [1] does the source give for COC(=O)Nc1cc(Cn2c(=O)c(C)c3sc(C(=O)NCc4ccc(F)cc4)cn3c2=O)on1 [Example 74, {5-[2-(4-Fluoro-benzylcarbamoyl)-8-methyl-5,7-dioxo-7H-thiazolo[3,2-c]pyrimidin-6-ylmethyl]-isoxazol-3-yl}-carbamic acid methyl ester] here?
Answer: Its IC50 is over 30 µM.

Question: What about the IC50 [2] of the same compound?
Answer: Its IC50 is 87 µM.

Question: What about the IC50 [3] of the same compound?
Answer: The IC50 was over 30 µM.

Question: And the IC50 [4]?
Answer: The IC50 was over 30 µM.

Question: For Cc1c(=O)n(Cc2ccc(-c3nn[nH]n3)cc2)c(=O)n2cc(C(=O)NCc3ccc(F)cc3)sc12 [Example 75, 8-Methyl-5,7-dioxo-6-[4-(2H-tetrazol-5-yl)-benzyl]-6,7-dihydro-5H-thiazolo[3,2-c]pyrimidine-2-carboxylic acid 4-fluoro-benzylamide], which IC50 [1] is on record?
Answer: Its IC50 is over 100 µM.

Question: What about the IC50 [2] of the same compound?
Answer: Its IC50 is over 100 µM.

Question: And the IC50 [3]?
Answer: The IC50 was over 100 µM.

Question: And the IC50 [4]?
Answer: The IC50 was over 100 µM.

Question: For Cc1c(=O)n(Cc2ccc(C(=O)N3CCOCC3)cc2)c(=O)n2cc(C(=O)NCc3ccc(F)cc3)sc12 [Example 76, 8-Methyl-6-[4-(morpholine-4-carbonyl)-benzyl]-5,7-dioxo-6,7-dihydro-5H-thiazolo[3,2-c]pyrimidine-2-carboxylic acid 4-fluoro-benzylamide], which IC50 [1] is on record?
Answer: Its IC50 is over 30 µM.

Question: And the IC50 [2]?
Answer: Its IC50 is over 30 µM.

Question: And the IC50 [3]?
Answer: Its IC50 is over 30 µM.

Question: What about the IC50 [4] of the same compound?
Answer: Its IC50 is over 30 µM.

Question: With Cc1c(=O)n(Cc2ccc3cc(F)ccc3n2)c(=O)n2cc(C(=O)NCc3ccc(F)cc3)sc12 [Example 77, 6-(6-Fluoro-quinolin-2-ylmethyl)-8-methyl-5,7-dioxo-6,7-dihydro-5H-thiazolo[3,2-c]pyrimidine-2-carboxylic acid 4-fluoro-benzylamide] as the compound, how does the IC50 [1] read?
Answer: Its IC50 is over 30 µM.

Question: What about the IC50 [2] of the same compound?
Answer: Its IC50 is over 30 µM.

Question: What about the IC50 [3] of the same compound?
Answer: The IC50 was over 30 µM.

Question: And the IC50 [4]?
Answer: Its IC50 is over 30 µM.

Question: Which IC50 [1] does the source give for CC#CCn1c(=O)c(C)c2sc(C(=O)NCc3ccc(F)cc3)cn2c1=O [Example 79, 6-But-2-ynyl-8-methyl-5,7-dioxo-6,7-dihydro-5H-thiazolo[3,2-c]pyrimidine-2-carboxylic acid 4-fluoro-benzylamide] here?
Answer: The IC50 was over 100 µM.

Question: What about the IC50 [2] of the same compound?
Answer: Its IC50 is over 100 µM.

Question: And the IC50 [3]?
Answer: The IC50 was over 100 µM.

Question: And the IC50 [4]?
Answer: The IC50 was over 100 µM.

Question: What does the source list for Cc1c(=O)n(Cc2ccc3oc(=O)ccc3c2)c(=O)n2cc(C(=O)NCc3ccc(F)cc3)sc12 [Example 80, 8-Methyl-5,7-dioxo-6-(2-oxo-2H-1-benzopyran-6-ylmethyl)-6,7-dihydro-5H-thiazolo[3,2-c]pyrimidine-2-carboxylic acid 4-fluoro-benzylamide]?
Answer: IC50 [1]: > 30 µM; IC50 [2]: > 30 µM; IC50 [3]: > 30 µM; IC50 [4]: > 30 µM

Question: What does the source list for Cc1c(=O)n(Cc2cccc(C#N)c2)c(=O)n2cc(C(=O)NCc3ccncc3)sc12 [Example 82, 6-(3-Cyano-benzyl)-8-methyl-5,7-dioxo-6,7-dihydro-5H-thiazolo[3,2-c]pyrimidine-2-carboxylic acid(pyridin-4-ylmethyl)-amide hydrochloride]?
Answer: IC50 [1]: > 30 µM; IC50 [2]: > 30 µM; IC50 [3]: > 30 µM; IC50 [4]: > 30 µM
